For one assay, the system named is B16-OVA tumor. Format: in vivo, mouse. The method, then:
(§1) Naïve splenocytes from OT-1 mice were stimulated in vitro with OVA257-264 (500 nM) and IL-2 (60 IU/mL) in the presence or absence of an added compound for 3 days at a density of 1 million/mL (100 uL/well in 96/well plate), then expanded for 4 days. On day 7, PD-1, Tim3 and TCF-1 expressions were assessed by flow cytometry by staining cells with anti-CD8a (PerCP-Cy5.5), anti-Tim3 (BV421) and anti-TCF-1 (AF488) antibodies. For adoptive transfer, 0.6M B16-OVA cells (6×10^5) were inoculated subcutaneously 3 to 5 days before transfer in C57BL/6. On the day of adoptive transfer, mice were irradiated with 5 Gy X-ray, randomized according to tumor size, and intravenously injected with 0.2-0.3M of CD8+OT-1 T cells (2×10^5) expanded under different conditions, followed by administration of 50000 IU IL-2 every 12 h for four days. In the control group, mice were injected with cell-free vehicle only. For assessment of adoptive transfer of OT-1 CD8+ T cells activated and expanded by contacting the cells with fructose, on day 9 after transfer, anti-PD-1 (100 ug/mouse) was administered to the mice that had received T cell transfer. For assessment of adoptive transfer of OT-1 CD8+ T cells activated and expanded by contacting cells with Neu5Ac, on day 14 and day 21 after transfer, anti-PD-1 (100 ug/mouse) was administered to the mice that had received T cell transfer. The tumor growth was monitored every 3 to 4 days by measuring tumor size. Percent survival was also monitored and recorded within a period of 40 days post treatment. To evaluate tumor infiltrating OT-1 T cells, 0.6M B16-OVA cells (6×10^5) were inoculated subcutaneously 3 to 5 days before transfer in C57BL/6. On the day of adoptive transfer, mice were irradiated with 5 Gy X-ray, randomized according to tumor size, and intravenously injected with 0.2-0.3M of CD8+OT-1 T cells (2×10^5) expanded under different conditions, followed by administration of 50000 IU IL-2 every 12 h for four days. Tumors were then isolated and assessed for percentage of OT-I T cells from the total CD8+ T cells and OT-1 T cell number per gram of tumor tissue. To evaluate apoptosis, Naïve OT-1 splenocytes were stimulated by OVA257-264 (500 nM) without IL-2 in the presence of absence of sugars for 5 days followed by using Annexin V Apoptosis detection kit (Biolegend). […] To evaluate other cellular characteristics, naïve OT-1 splenocytes were stimulated by OVA257-264 (500 nM) with IL-2 (60 IU/mL) in the presence or absence of sugars for 7 or 8 days. On day 7 or 8 cells were taken and analyzed by assessment of ROS, NADPH/NADP+ ratio, and GSH/GSSG ratio.

The next assay concerns P14 cells. Kind of assay: P14 splenocyte in vitro activation, re-stimulation and expansion. Format: cell-based, mouse. The settings on record: 50 mM; for Fold of proliferation, Normalized to W/O: P14 cells.
The test system of a further assay is TILs from B16-OVA tumor. Format: cell-based, mouse. The settings on record: day 7 rapid expansion. How it is done: TILs from B16-OVA tumor were isolated on day10 after inoculation, and Tim-3^−TCF/GFP^+ and Tim-3^+TCF/GFP^− in tetramer positive population were collected by live cell sorting (FIG. 15A). Phenotype features of Tim-3^−TCF/GFP^+ (FIG. 15B) and Tim-3^+TCF/GFP^− (FIG. 15C) were analyzed on day 7 after rapid expansion with feeder cells (TILs/feeder cell: 1/200) in the presence or absence of sugars.
To investigate which population that sugars mainly changed on T cells, B16-OVA cancer cells (7×10^5 cells) were subcutaneously inoculated into the left or right flank of TCF7^GFP mice expressing an EGFP fluorescent reporter from the endogenous Tcf7 locus, which enable us to track the expression of TCF-1 in live cells.

A further assay has as its system OT-I splenocytes. Nature of the assay: OT-I splenocyte culture with purine/pyrimidine pathway compounds. As to conditions: CD8+ T cells. Format: cell-based, mouse. The method, then: We therefore tested if purine and pyrimidine nucleotides have similar effects as N-Acetylneuraminic acid to help maintain less differentiated phenotypes of T cells during expansion. OT-I splenocytes were cultured with 500 nM […] peptide (OVA257-264) for three days at initial cell density of 1×10^6/mL to activate and expand the CD8+ T cell population. Different concentrations of the products or intermediates in purine or pyrimidine de novo synthesis pathways were added on day 3. The tested compounds include, e.g., guanosine, deoxyguanosine, adenosine, deoxyadenosine, inosine, xanthosine, orotidine, uridine, cytidine, deoxycytidine, thymidine, deoxythymidine, 5-Aminoimidazole-4-carboxamide ribonucleotide (AICAR), orotate, and dihydroorotate. The phenotype of expanded T cells were analyzed on day 5.

In assay [1] the test system is OT-1 splenocytes. Nature of the assay: Apoptosis (Annexin V) and IL-2 production of OT-1 splenocytes stimulated without IL-2. Format: cell-based, mouse. As to conditions: OVA257-264 500 nM without IL-2, 5 days. How it is done:
as §1

Another assay concerns OT-1 cells. Kind of assay: OT-I-Tcf7GFP splenocyte screen: proliferation and Tim3−TCF-1+ ratio. Format: cell-based, mouse. As to conditions: Day7, 50 mM.
The subject of assay [2] is MC38 TSA-reactive CD8+ TILs. Kind of assay: Rapid expansion of TSA-reactive CD8+ TILs from MC38 tumors. Format: cell-based, mouse. The method, then: Sugars were added at the beginning or during the expansion of the TILs, and kept till the end of expansion. On expansion day 9, phenotypes of the expanded T cells were assessed, and the cells were used for adoptive transfer (FIG. 6E). For adoptive transfer, 0.5 million cells (B16-OVA or MC38) were inoculated subcutaneously on each mouse on day 0, Listeria monocytogenes-OVA (LM-OVA) infection 0.5 million CFU/mice on day 1, and blood analysis was recorded on day 7.

The subject of assay [3] is OT-1 splenocytes. Kind of assay: ROS, NADPH/NADP+ ratio and GSH/GSSG ratio of OT-1 splenocytes. Format: cell-based, mouse. The settings on record: day 7 or 8, with IL-2; vs T cells not treated with sugar. The method, then:
as §1

Another assay relates to HA-28z CAR T cells. Nature of the assay: HA-28z (GD2) CAR T cell expansion with sugars. As to conditions: 50 mM, 14 days; both CD8^+ and CD4^+ CAR T cells.

Regarding `CC(=O)N[C@H]1[C@H]([C@H](O)[C@H](O)CO)OC(O)(C(=O)O)C[C@@H]1O` (stereo partly drawn) [Neu5Ac, N-acetylneuraminic acid], the “capabilities to control tumor growth by way of tumor volume and survival rate” value in the assay with B16-OVA tumor (treated OT-1 T cells used with anti-PD-1 antibody treatment, vs untreated T cells) is on record as “significantly better”. In the assay with B16-OVA tumor (treated T cells transferred to B16-OVA mice), the “tumor infiltrating OT-1 T cell numbers” value is recorded as “increased”. The “Fold of proliferation, Normalized to W/O” value is reported as 2.29 fold in the assay on P14 cells (Day6) and 1.40 fold with P14 cells (Day9). The “Tim3^−TCF-1^+ ratio of CD8^+ T cells (%)” value in the assay on P14 cells (Day6, w/o 55.0) is 97.4%; with P14 cells (Day9, w/o 3.5), 71.3%; in the assay on OT-1 cells (w/o 2.6) it was 59.6%. In the assay with TILs from B16-OVA tumor, the “reversal of sorted Tim-3^+TCF-GFP^− back to Tim-3^−TCF-GFP^+ phenotype” value is recorded as “partially reverse”. Also, in the assay on TILs from B16-OVA tumor (vs without sugars), the “maintenance of progenitor exhausted features of sorted Tim-3-TCF-GFP^+ TILs” value is on record as “maintain more Tim-3^−TCF/GFP^+ cells”. Besides, the “purine and pyrimidine biosynthesis end products and certain intermediates” value in the assay on OT-I splenocytes was “upregulated”. In the assay with OT-1 splenocytes [1] (vs T cells not treated with sugar), the “viability and apoptotic characteristics” value is “enhanced viability and differential apoptotic characteristics”. Besides, the “production of IL-2” value in the assay on OT-1 splenocytes [1] (vs no sugar) is recorded as “significantly greater”. Also, in the assay with OT-1 cells (Mus musculus, Splenocyte, 168 h, OT-1 cells, read-out: Proliferation fold, Normalized to W/O), the activity at 50000 µM stood at 143%. Besides, in [2], the “cell surface anti-CLA (Cutaneous Lymphocyte-associated Antigen) staining” value is on record as “significant increase”. Besides, in the assay with OT-1 splenocytes [3], the GSH/GSSG ratio result is given as “greater”. Moreover, in the assay with OT-1 splenocytes [3], the “NADPH/NADP+ ratio” value is “greater”. In the assay on OT-1 splenocytes [3], the ROS result is “significantly less”. Besides, the “CAR T cells proliferated times faster than cells expanded without sugars” value with HA-28z CAR T cells was 1.5-2 times.

The record behind these values is patent publication US20250027930A1, “SMALL MOLECULES FOR REPROGRAMING ANTI-TUMOR IMMUNITY OF T CELLS” (THE SCRIPPS RESEARCH INSTITUTE, priority 2021, published 2025).
